From US5705509A, “Tricyclic heterocyclic compounds as 5-HT4 receptor antagonists” (SmithKline Beecham plc, priority 1993, dated 1998)

Molecular target: T1, 5-HT4 receptor (Cavia porcellus, UniProt O70528)
T1 construct: Longitudinal muscle-myenteric plexus preparations, approximately 3 cm long, are obtained from the distal colon region; from tissue; host or cells: guinea-pig distal colon, longitudinal muscle-myenteric plexus
Experiment: Guinea pig colon 5-HT4 receptor antagonist activity (reduction of 5-HT evoked contraction of longitudinal muscle-myenteric plexus)
Details: distal colon longitudinal muscle-myenteric plexus; contraction evoked by 5-HT; methiothepin 10^-7 M and granisetron 10^-6 M present; n=4; read-out: pIC50 (-log concentration of antagonist which reduces the contraction by 50%) (converted)
Description: Male guinea-pigs, weighing 250-400 g are used. Longitudinal muscle-myenteric plexus preparations, approximately 3 cm long, are obtained from the distal colon region. These are suspended under a 0.5 g load in isolated tissue baths containing Krebs solution bubbled with 5% CO2 in O2 and maintained at 37° C. In all experiments, the Krebs solution also contains methiothepin 10^-7 M and granisetron 10^-6 M to block effects at 5-HT1, 5-HT2 and 5-HT3 receptors.
After construction of a simple concentration-response curve with 5-HT, using 30s contact times and a 15 min dosing cycle, a concentration of 5-HT is selected so as to obtain a contraction of the muscle approximately 40-70% maximum(10^-9 M approx). The tissue is then alternately dosed every 15 min with this concentration of 5-HT and then with an approximately equi-effective concentration of the nicotine receptor stimulant, dimethylphenylpiperazinium (DMPP). After obtaining consistent responses to both 5-HT and DMPP, increasing concentrations of a putative 5-HT4 receptor antagonist are then added to the bathing solution. The effects of this compound are then determined as a percentage reduction of the contractions evoked by 5-HT or by DMPP. […] A compound which reduces the response to 5-HT but not to DMPP is believed to act as a 5-HT4 receptor antagonist.

T1 sequence (O70528 whole entry): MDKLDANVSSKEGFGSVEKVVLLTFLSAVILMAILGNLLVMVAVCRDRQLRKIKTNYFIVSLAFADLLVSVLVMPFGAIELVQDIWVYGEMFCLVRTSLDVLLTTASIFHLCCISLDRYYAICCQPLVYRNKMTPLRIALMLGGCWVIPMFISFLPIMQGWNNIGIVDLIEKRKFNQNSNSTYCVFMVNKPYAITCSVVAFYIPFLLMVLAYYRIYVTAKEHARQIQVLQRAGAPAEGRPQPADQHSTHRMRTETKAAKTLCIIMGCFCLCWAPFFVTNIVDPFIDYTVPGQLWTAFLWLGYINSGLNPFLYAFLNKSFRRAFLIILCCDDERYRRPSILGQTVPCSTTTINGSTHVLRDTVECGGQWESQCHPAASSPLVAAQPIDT

IC50: 166 nM
Compound: CCCCN1CCC(COC(=O)c2cc3[nH]cnc3c3c2OCCO3)CC1 [Example 1, (1-Butyl-4-piperidinyl)methyl 1 H-7,8-dihydro-[1,4]-dioxino[2,3-g]benzimidazole-5-carboxylate]
